Test results as given in patent US20250228239A1, “MOLECULES HAVING PESTICIDAL UTILITY, AND INTERMEDIATES, COMPOSITIONS, AND PROCESSES, RELATED THERETO” (priority 2024, published 2025).

Columns and labels:
[1] = tested on: Cabbage Looper (Trichoplusia ni, TRIPNI); assay: Bioassays on Cabbage Looper (CL), 128-well diet tray assay; assay type: in vivo; conditions: Trichoplusia ni; Cabbage Looper, Table ABC / ABC-DP rating; read-out: CL rating
In short: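 Each of eight wells receives artificial diet treated at 50 μg/cm^2 with the test molecule, then one to five second-instar larvae. Incubation runs five to seven days at 25° C with a 14:10 light-dark cycle under vented covers. Mortality is scored per well as a percentage and averaged.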

[2] = tested on: Beet Armyworm (Spodoptera exigua, LAPHEG); assay: Bioassays on Beet Armyworm (BAW), 128-well diet tray assay; assay type: in vivo; conditions: Spodoptera exigua; Beet Armyworm, Table ABC / ABC-DP rating; read-out: BAW rating
In short: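 Larvae at second instar are exposed on dried, compound-treated diet (50 μg/cm^2, delivered in 90:10 acetone-water) in eight replicate wells. After five to seven days at 25° C., 14:10 light-dark, percent mortality in each well is scored and the eight wells averaged.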

Row | SMILES | pest or weed control at 50 µg/cm2 [1] [%] | pest or weed control at 50 µg/cm2 [2] [%]
1 | O=C(CC(=O)C(F)(F)F)Nc1c(F)ccc(NC(=O)c2cc(NC(=O)[C@H]3[C@H](c4ccc(F)c(C(F)(F)F)c4)C3(Cl)Cl)ccc2Cl)c1F [F1840, 2-Chloro-5-((1R,3R)-2,2-dichloro-3-(4-fluoro-3-(trifluoromethyl)phenyl)cyclopropane-1-carboxamido)-N-(2,4-difluoro-3-(4,4,4-trifluoro-3-oxobutanamido)phenyl)benzamide] | 50 to 100 | 50 to 100
2 | CC(C)CC(=O)Nc1c(F)ccc(NC(=O)c2cc(NC(=O)[C@H]3[C@H](c4ccc(F)c(C(F)(F)F)c4)C3(Cl)Cl)ccc2Cl)c1F [F1845, 2-Chloro-5-((1R,3R)-2,2-dichloro-3-(4-fluoro-3-(trifluoromethyl)phenyl)cyclopropane-1-carboxamido)-N-(2,4-difluoro-3-(3-methylbutanamido)phenyl)benzamide] | 50 to 100 | 50 to 100
3 | O=C(COCC(F)(F)F)Nc1c(F)ccc(NC(=O)c2cc(NC(=O)[C@H]3[C@H](c4ccc(F)c(C(F)(F)F)c4)C3(Cl)Cl)ccc2Cl)c1F [F1846, 2-Chloro-5-((1R,3R)-2,2-dichloro-3-(4-fluoro-3-(trifluoromethyl)phenyl)cyclopropane-1-carboxamido)-N-(2,4-difluoro-3-(2-(2,2,2-trifluoroethoxy)acetamido)phenyl)benzamide] | 50 to 100 | 50 to 100
4 | O=C(Nc1ccc(F)c(NC(=O)C2(C(F)(F)F)CCC2)c1F)c1cc(NC(=O)[C@H]2[C@H](c3ccc(F)c(C(F)(F)F)c3)C2(Cl)Cl)ccc1Cl [F1849, 2-Chloro-5-((1R,3R)-2,2-dichloro-3-(4-fluoro-3-(trifluoromethyl)phenyl)cyclopropane-1-carboxamido)-N-(2,4-difluoro-3-(1-(trifluoromethyl)cyclobutane-1-carboxamido)phenyl)benzamide] | 50 to 100 | 50 to 100
5 | CC(=O)C1(C(=O)Nc2c(F)ccc(NC(=O)c3cc(NC(=O)[C@H]4[C@H](c5ccc(F)c(C(F)(F)F)c5)C4(Cl)Cl)ccc3Cl)c2F)CC1 [F1850, N-(3-(1-Acetylcyclopropane-1-carboxamido)-2,4-difluorophenyl)-2-chloro-5-((1R,3R)-2,2-dichloro-3-(4-fluoro-3-(trifluoromethyl)phenyl)cyclopropane-1-carboxamido)benzamide] | 50 to 100 | 50 to 100
6 | O=C(CCBr)Nc1c(F)ccc(NC(=O)c2cc(NC(=O)[C@H]3[C@H](c4ccc(F)c(C(F)(F)F)c4)C3(Cl)Cl)ccc2Cl)c1F [F1851, N-(3-(3-Bromopropanamido)-2,4-difluorophenyl)-2-chloro-5-((1R,3R)-2,2-dichloro-3-(4-fluoro-3-(trifluoromethyl)phenyl)cyclopropane-1-carboxamido)benzamide] | 50 to 100 | 50 to 100
7 | C#CCCC(=O)Nc1c(F)ccc(NC(=O)c2cc(NC(=O)[C@H]3[C@H](c4ccc(F)c(C(F)(F)F)c4)C3(Cl)Cl)ccc2Cl)c1F [F1855] | 50 to 100 | 50 to 100
8 | CC(F)(F)CCC(=O)Nc1c(F)ccc(NC(=O)c2cc(NC(=O)[C@H]3[C@H](c4ccc(Cl)c(Cl)c4)C3(Cl)Cl)ccc2Cl)c1F [F1860, 2-Chloro-5-((1R,3R)-2,2-dichloro-3-(3,4-dichlorophenyl)cyclopropane-1-carboxamido)-N-(3-(4,4-difluoropentanamido)-2,4-difluorophenyl)benzamide] | 50 to 100 | 50 to 100
9 | O=C(CCC(F)(F)C(F)(F)F)Nc1c(F)ccc(NC(=O)c2cc(NC(=O)[C@H]3[C@H](c4ccc(Cl)c(Cl)c4)C3(Cl)Cl)ccc2Cl)c1F [F1861, 2-Chloro-5-((1R,3R)-2,2-dichloro-3-(3,4-dichlorophenyl)cyclopropane-1-carboxamido)-N-(2,4-difluoro-3-(4,4,5,5,5-pentafluoropentanamido)phenyl) benzamide] | 50 to 100 | 50 to 100
10 | CC(CC(F)(F)F)C(=O)Nc1c(F)ccc(NC(=O)c2cc(NC(=O)[C@H]3[C@H](c4ccc(Cl)c(Cl)c4)C3(Cl)Cl)ccc2Cl)c1F (stereo partly drawn) [F1862, 2-Chloro-5-((1R,3R)-2,2-dichloro-3-(3,4-dichlorophenyl)cyclopropane-1-carboxamido)-N-(2,4-difluoro-3-(4,4,4-trifluoro-2-methylbutanamido)phenyl) benzamide] | 50 to 100 | 50 to 100
11 | O=C(COCC(F)(F)F)Nc1c(F)ccc(NC(=O)c2cc(NC(=O)[C@H]3[C@H](c4ccc(Cl)c(Cl)c4)C3(Cl)Cl)ccc2Cl)c1F [F1863, 2-Chloro-5-((1R,3R)-2,2-dichloro-3-(3,4-dichlorophenyl)cyclopropane-1-carboxamido)-N-(2,4-difluoro-3-(2-(2,2,2-trifluoroethoxy)acetamido)phenyl) benzamide] | 50 to 100 | 50 to 100
12 | CC(F)(F)CCC(=O)Nc1c(F)ccc(NC(=O)c2cc(NC(=O)[C@H]3[C@H](c4ccc(F)c(Cl)c4)C3(Cl)Cl)ccc2Cl)c1F [F1864, 2-Chloro-5-((1R,3R)-2,2-dichloro-3-(3-chloro-4-fluorophenyl)cyclopropane-1-carboxamido)-N-(3-(4,4-difluoropentanamido)-2,4-difluorophenyl)benzamide] | 50 to 100 | 50 to 100
13 | O=C(CCC(F)(F)C(F)(F)F)Nc1c(F)ccc(NC(=O)c2cc(NC(=O)[C@H]3[C@H](c4ccc(F)c(Cl)c4)C3(Cl)Cl)ccc2Cl)c1F [F1865, 2-Chloro-5-((1R,3R)-2,2-dichloro-3-(3-chloro-4-fluorophenyl)cyclopropane-1-carboxamido)-N-(2,4-difluoro-3-(4,4,5,5,5-pentafluoropentanamido)phenyl) benzamide] | 50 to 100 | 50 to 100
14 | O=C(COCC(F)(F)F)Nc1c(F)ccc(NC(=O)c2cc(NC(=O)[C@H]3[C@H](c4ccc(F)c(Cl)c4)C3(Cl)Cl)ccc2Cl)c1F [F1867, 2-Chloro-5-((1R,3R)-2,2-dichloro-3-(3-chloro-4-fluorophenyl)cyclopropane-1-carboxamido)-N-(2,4-difluoro-3-(2-(2,2,2-trifluoroethoxy)acetamido)phenyl) benzamide] | 50 to 100 | 50 to 100
15 | C=C(F)C(=O)Nc1c(F)ccc(NC(=O)c2cc(NC(=O)[C@H]3[C@H](c4ccc(Cl)c(Cl)c4)C3(Cl)Cl)ccc2Cl)c1F [F1871, 2-Chloro-5-((1R,3R)-2,2-dichloro-3-(3,4-dichlorophenyl)cyclopropane-1-carboxamido)-N-(2,4-difluoro-3-(2-fluoroacrylamido)phenyl)benzamide] | 50 to 100 | 50 to 100
16 | C=C(F)C(=O)Nc1c(F)ccc(NC(=O)c2cc(NC(=O)[C@H]3[C@H](c4cc(Cl)c(Cl)c(Cl)c4)C3(Cl)Cl)ccc2Cl)c1F [F1872, 2-Chloro-5-((1R,3R)-2,2-dichloro-3-(3,4,5-trichlorophenyl)cyclopropane-1-carboxamido)-N-(2,4-difluoro-3-(2-fluoroacrylamido)phenyl)benzamide] | 50 to 100 | 50 to 100
17 | C=CCC(=O)Nc1c(F)ccc(NC(=O)c2cc(NC(=O)[C@H]3[C@H](c4ccc(Cl)c(Cl)c4)C3(Cl)Cl)ccc2Cl)c1F [F1873, N-(3-(But-3-enamido)-2,4-difluorophenyl)-2-chloro-5-((1R,3R)-2,2-dichloro-3-(3,4-dichlorophenyl)cyclopropane-1-carboxamido)benzamide] | 50 to 100 | 50 to 100
18 | C=CCC(=O)Nc1ccc(F)c(NC(=O)c2cc(NC(=O)[C@H]3[C@H](c4cc(Cl)c(Cl)c(Cl)c4)C3(Cl)Cl)cc(F)c2F)c1F [F1875, N-(3-(But-3-enamido)-2,6-difluorophenyl)-5-((1R,3R)-2,2-dichloro-3-(3,4,5-trichlorophenyl)cyclopropane-1-carboxamido)-2,3-difluorobenzamide] | 50 to 100 | 50 to 100
19 | C=CC(=O)Nc1c(F)ccc(NC(=O)c2cc(NC(=O)[C@H]3[C@H](c4ccc(F)c(C(F)(F)F)c4)C3(Cl)Cl)ccc2Cl)c1F [F1877, N-(3-Acrylamido-2,4-difluorophenyl)-2-chloro-5-((1R,3R)-2,2-dichloro-3-(4-fluoro-3-(trifluoromethyl)phenyl)cyclopropane-1-carboxamido)benzamide] | 50 to 100 | 50 to 100
20 | C=CCC(=O)Nc1c(F)ccc(NC(=O)c2cc(NC(=O)[C@H]3[C@H](c4ccc(F)c(Br)c4)C3(Cl)Cl)ccc2Cl)c1F [F1880, 5-((1R,3R)-3-(3-Bromo-4-fluorophenyl)-2,2-dichlorocyclopropane-1-carboxamido)-N-(3-(but-3-enamido)-2,4-difluorophenyl)-2-chlorobenzamide] | 50 to 100 | 50 to 100
21 | CCNC(=O)c1c(Cl)ccc(NC(=O)[C@H]2[C@H](c3ccc(F)c(Cl)c3)C2(Cl)Cl)c1F [F2071, 6-Chloro-3-((1R,3R)-2,2-dichloro-3-(3-chloro-4-fluorophenyl)cyclopropane-1-carboxamido)-N-ethyl-2-fluorobenzamide] | 50 to 100 | 50 to 100
22 | O=C(NCC(F)(F)F)c1c(Cl)ccc(NC(=O)[C@H]2[C@H](c3ccc(F)c(Cl)c3)C2(Cl)Cl)c1F [F2072, 6-Chloro-3-((1R,3R)-2,2-dichloro-3-(3-chloro-4-fluorophenyl)cyclopropane-1-carboxamido)-2-fluoro-N-(2,2,2-trifluoroethyl)benzamide] | 50 to 100 | 50 to 100
